Source: ChEMBL document CHEMBL4811263, “Tulipiferamide A, an Alkamide from Liriodendron tulipifera, Exhibits an Anti-Inflammatory Effect via Targeting IKKβ Phosphorylation” (J Nat Prod, 2021)
Blank lines part the entries; values can stand above or below the compound they belong to. Activity calls are given as the source filed them. The rule behind the calls is not given here.

How the values were obtained:
[1] = tested on: RAW264.7; experiment: Antiinflammatory activity in mouse RAW264.7 assessed as inhibition of LPS-induced NO production preincubated for 30 mins followed by LPS stimulation measured after 24 hrs by Griess reagent based assay; type: functional, cell-based
[2] = Inhibition of LPS-indued NF-kappaB activation in mouse RAW264.7 cells preincubated for 30 mins followed by LPS stimulation and measured after 10 hrs by luciferase assay; type: cell-based
[3] = tested on: RAW264.7; experiment: Inhibition of MAPK in mouse RAW264.7 cells assessed as inhibition of LPS-induced p38 phosphorylation at 30 uM preincubated for 30 mins followed by LPS stimulation by Western blotting analysis; type: cell-based
[4] = tested on: HEK293; experiment: Inhibition of IKK phosphorylation in HEK293 cells transfected with IKKbeta by Western blotting analysis; type: cell-based; conditions: Homo sapiens
[5] = tested on: RAW264.7; experiment: Antiinflammatory activity in mouse RAW264.7 cells assessed as inhibition of LPS-induced IL6 mRNA expression at 30 uM preincubated for 30 mins followed by LPS stimulation by RT-PCR analysis; type: functional, cell-based
[6] = tested on: RAW264.7; experiment: Inhibition of MAPK in mouse RAW264.7 cells assessed as inhibition of LPS-induced JNK phosphorylation at 30 uM preincubated for 30 mins followed by LPS stimulation by Western blotting analysis; type: cell-based
[7] = target: T1, Inhibitor of nuclear factor kappa-B kinase subunit alpha (Mus musculus) (UniProt Q60680); experiment: Inhibition of IKKalpha mediated NF-kappaB activation in mouse RAW264.7 cells assessed as TWEAK-induced degradation of TRAF2 by Western blotting analysis; type: cell-based
T1 sequence (whole entry): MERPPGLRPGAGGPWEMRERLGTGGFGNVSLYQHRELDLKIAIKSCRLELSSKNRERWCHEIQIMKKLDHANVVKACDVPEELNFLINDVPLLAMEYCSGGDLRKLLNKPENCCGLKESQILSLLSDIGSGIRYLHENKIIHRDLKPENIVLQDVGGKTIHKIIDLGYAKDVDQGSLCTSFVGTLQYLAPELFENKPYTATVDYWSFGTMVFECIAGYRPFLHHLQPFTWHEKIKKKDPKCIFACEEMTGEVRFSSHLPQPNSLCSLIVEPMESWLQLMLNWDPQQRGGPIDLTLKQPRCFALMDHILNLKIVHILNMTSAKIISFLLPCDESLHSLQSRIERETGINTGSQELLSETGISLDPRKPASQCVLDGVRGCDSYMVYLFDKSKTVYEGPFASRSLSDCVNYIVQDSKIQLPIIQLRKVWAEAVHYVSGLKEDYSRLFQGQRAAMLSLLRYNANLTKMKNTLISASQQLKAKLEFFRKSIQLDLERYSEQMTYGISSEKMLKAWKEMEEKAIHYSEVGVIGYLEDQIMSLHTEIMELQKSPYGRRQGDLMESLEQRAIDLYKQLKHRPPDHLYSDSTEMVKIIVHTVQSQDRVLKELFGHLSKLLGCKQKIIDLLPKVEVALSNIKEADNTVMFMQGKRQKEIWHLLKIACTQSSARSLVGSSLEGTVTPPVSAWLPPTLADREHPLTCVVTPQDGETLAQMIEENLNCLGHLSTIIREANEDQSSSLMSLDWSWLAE

[8] = target: T1, Inhibitor of nuclear factor kappa-B kinase subunit alpha (Mus musculus); experiment: Inhibition of IKKalpha mediated NF-kappaB activation in mouse RAW264.7 cells assessed as reduction TWEAK-induced processing of p100 to p52 by Western blotting analysis; type: cell-based
[9] = tested on: RAW264.7; experiment: Antiinflammatory activity in mouse RAW264.7 cells assessed as inhibition of LPS-induced IL-1beta mRNA expression at 30 uM preincubated for 30 mins followed by LPS stimulation by RT-PCR analysis; type: functional, cell-based
[10] = tested on: RAW264.7; experiment: Antiinflammatory activity in mouse RAW264.7 cells assessed as inhibition of LPS-induced iNOS mRNA expression at 30 uM preincubated for 30 mins followed by LPS stimulation by RT-PCR analysis; type: functional, cell-based
[11] = target: T1, Inhibitor of nuclear factor kappa-B kinase subunit alpha (Mus musculus); experiment: Inhibition of IKKalpha mediated NF-kappaB activation in mouse RAW264.7 cells assessed as reduction in LIGHT-induced processing of p100 to p52 by Western blotting analysis; type: cell-based
[12] = tested on: RAW264.7; experiment: Inhibition of MAPK in mouse RAW264.7 cells assessed as inhibition of LPS-induced ERK phosphorylation at 30 uM preincubated for 30 mins followed by LPS stimulation by Western blotting analysis; type: cell-based
[13] = target: T1, Inhibitor of nuclear factor kappa-B kinase subunit alpha (Mus musculus); experiment: Inhibition of IKKalpha mediated NF-kappaB activation in mouse RAW264.7 cells assessed as TWEAK-induced degradation of TRAF3 by Western blotting analysis; type: cell-based
[14] = tested on: RAW264.7; experiment: Antiinflammatory activity in mouse RAW264.7 cells assessed as inhibition of LPS-induced iNOS protein expression at 30 uM preincubated for 30 mins followed by LPS stimulation by Western blot analysis; type: functional, cell-based
[15] = target: T2, Inhibitor of nuclear factor kappa-B kinase subunit beta (Mus musculus) (UniProt O88351); experiment: Inhibition of IKKbeta mediated NF-kappaB activation in mouse RAW264.7 cells assessed as inhibition of TWEAK-induced p65 phosphorylation on serine 536 by Western blotting analysis; type: cell-based
T2 sequence (whole entry): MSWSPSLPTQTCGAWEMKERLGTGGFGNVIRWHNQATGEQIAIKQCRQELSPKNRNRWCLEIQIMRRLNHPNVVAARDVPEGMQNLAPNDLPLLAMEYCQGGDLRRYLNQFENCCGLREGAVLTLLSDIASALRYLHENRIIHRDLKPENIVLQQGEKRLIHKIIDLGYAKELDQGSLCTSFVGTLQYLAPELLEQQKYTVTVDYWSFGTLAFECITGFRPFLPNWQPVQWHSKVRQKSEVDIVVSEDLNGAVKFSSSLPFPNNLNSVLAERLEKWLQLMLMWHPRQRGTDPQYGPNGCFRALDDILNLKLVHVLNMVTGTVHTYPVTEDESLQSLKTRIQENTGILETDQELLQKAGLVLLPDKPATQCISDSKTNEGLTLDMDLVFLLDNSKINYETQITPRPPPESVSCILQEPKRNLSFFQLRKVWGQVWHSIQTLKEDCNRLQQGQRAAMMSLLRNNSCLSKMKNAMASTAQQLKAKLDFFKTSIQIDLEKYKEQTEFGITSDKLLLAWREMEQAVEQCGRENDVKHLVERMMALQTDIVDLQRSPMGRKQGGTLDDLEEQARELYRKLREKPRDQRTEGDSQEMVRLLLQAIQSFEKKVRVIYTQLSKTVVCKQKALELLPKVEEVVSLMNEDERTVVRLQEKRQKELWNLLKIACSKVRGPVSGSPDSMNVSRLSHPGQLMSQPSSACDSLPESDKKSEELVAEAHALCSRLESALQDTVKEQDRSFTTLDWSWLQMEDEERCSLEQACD

[16] = tested on: RAW264.7; experiment: Antiinflammatory activity in mouse RAW264.7 cells assessed as inhibition of LPS-induced IL-1beta protein expression at 30 uM preincubated for 30 mins followed by LPS stimulation by Western blot analysis; type: functional, cell-based
[17] = tested on: RAW264.7; experiment: Antiinflammatory activity in mouse RAW264.7 cells assessed as inhibition of LPS-induced COX-2 mRNA expression at 30 uM preincubated for 30 mins followed by LPS stimulation by RT-PCR analysis; type: functional, cell-based
[18] = tested on: RAW264.7; experiment: Antiinflammatory activity in mouse RAW264.7 cells assessed as inhibition of LPS-induced TNFalpha mRNA expression at 30 uM preincubated for 30 mins followed by LPS stimulation by RT-PCR analysis; type: functional, cell-based
[19] = tested on: RAW264.7; experiment: Inhibition of NF-kappaB activation in mouse RAW264.7 cells assessed as inhibition of LPS-induced relA phosphorylation at 30 uM preincubated for 30 mins followed by LPS stimulation by Western blotting analysis; type: cell-based
[20] = tested on: RAW264.7; experiment: Inhibition of NF-kappaB activation in mouse RAW264.7 cells assessed as inhibition of LPS-induced IKKbeta phosphorylation at 30 uM preincubated for 30 mins followed by LPS stimulation by Western blotting analysis; type: cell-based
[21] = tested on: RAW264.7; experiment: Antiinflammatory activity in mouse RAW264.7 cells assessed as inhibition of LPS-induced COX-2 protein expression at 30 uM preincubated for 30 mins followed by LPS stimulation by Western blot analysis; type: functional, cell-based
[22] = tested on: RAW264.7; experiment: Inhibition of NF-kappaB activation in mouse RAW264.7 cells assessed as inhibition of LPS-induced IKKalpha phosphorylation at 30 uM preincubated for 30 mins followed by LPS stimulation by Western blotting analysis; type: cell-based
[23] = tested on: RAW264.7; experiment: Inhibition of NF-kappaB activation in mouse RAW264.7 cells assessed as inhibition of LPS-induced IkappaBalpha phosphorylation at 30 uM preincubated for 30 mins followed by LPS stimulation by Western blotting analysis; type: cell-based

SMILES: O=C1c2ccccc2-c2c3c(cc4ccnc1c24)OCO3 [LIRIODENINE]
IC50 [1]: 10.5 µM

SMILES: COc1cc([C@H]2OC[C@H]3[C@@H]2CO[C@@H]3c2cc(OC)c(O)c(OC)c2)cc(OC)c1O [SYRINGARESINOL]
IC50 [1]: > 50 µM

SMILES: COc1cc(/C=C/C(=O)NCCc2ccc(O)cc2)ccc1O [N-TRANS-FERULOYL TYRAMINE]
IC50 [1]: > 50 µM

SMILES: COc1cc(/C=C/C(=O)NCCc2ccc(O)c(OC)c2)ccc1O
IC50 [1]: > 50 µM

SMILES: COc1cc([C@H]2Oc3c(OC)cc(CCCO)cc3[C@@H]2CO)ccc1O [DIHYDRODEHYDRODICONIFERY ALCOHOL]
IC50 [1]: > 50 µM

SMILES: COc1cc(C(=O)C2CO[C@H](c3cc(OC)c(O)c(OC)c3)[C@H]2CO)cc(OC)c1O (stereo partly specified)
IC50 [1]: > 50 µM

SMILES: COc1c(OC)c2c3c(nccc3c1OC)C(=O)c1ccccc1-2 [HOMOMOSCHATOLINE]
IC50 [1]: > 50 µM

SMILES: C/C=C/c1cc(OC)c(OC(C)Cc2cc(OC)c(OC)c(OC)c2)c(OC)c1 (racemic)
IC50 [1]: > 50 µM

SMILES: O=Cc1ccc(O)cc1 [4-HYDROXYBENZALDEHYDE]
IC50 [1]: > 50 µM

SMILES: COc1cc2c(cc1OC)-c1c(OC)c(OC)cc3ccnc(c13)C2=O [OXOGLAUCINE]
IC50 [1]: > 50 µM

Second part, led by results:

IC50 [1]: 21.6 µM
IC50 [2]: 15.5 µM
SMILES: COc1cc(O)c2c(c1)O[C@H](c1ccc(O)cc1)CC2=O [SAKURANETIN]

IC50 [1]: > 50 µM
SMILES: C=CCc1cc(OC)c(OC(C)Cc2cc(OC)c(OC)c(OC)c2)c(OC)c1 (racemic)

IC50 [1]: > 50 µM
SMILES: COc1c2c3c(c(OC)c1OC)-c1cc4c(cc1C[C@@H]3N(C(C)=O)CC2)OCO4

IC50 [1]: > 50 µM
SMILES: COc1cc(C=O)ccc1O [VANILLIN]

IC50 [1]: 13.3 µM
inhibition [7]: inactive
inhibition [8]: inactive
inhibition [11]: inactive
inhibition [13]: inactive
IC50 [2]: 21.6 µM
inhibition [15]: Active
SMILES: CCCCC/C=C\C=C\C(=O)NCCc1ccccc1
inhibition [3]: inactive
inhibition [4]: Active
Activity [5]: Active
inhibition [6]: inactive
Activity [9]: Active
Activity [10]: Active
inhibition [12]: inactive
Activity [14]: Active
Activity [16]: Active
Activity [17]: Active
Activity [18]: Active
inhibition [19]: Active
inhibition [20]: Active
Activity [21]: Active
inhibition [22]: Active
inhibition [23]: Active

IC50 [1]: > 50 µM
SMILES: C=C1C(=O)O[C@@H]2/C=C(\C)CC/C=C(\C)CC[C@@H]12 [COSTUNOLIDE]

IC50 [1]: 14 µM
IC50 [2]: 24.5 µM
SMILES: COc1c2c3c(c(OC)c1OC)-c1ccccc1C[C@H]3N(C(C)=O)CC2
